In patent US10927107B2, “Phenyl [a]indole[2,3-g]quinolizine compounds, preparation method therefor, pharmaceutical composition, and applications thereof” (Shanghai Institute of Materia Medica, Chinese Academy of …, priority 2016, dated 2021):
Blank lines part the entries; values can stand above or below the molecule they belong to.

Tests used:
HepG2 cells = experiment: In vitro lipid-lowering activity: DiI-LDL uptake in HepG2 cells; type: cell-based; conditions: Homo sapiens, test compound 5 uM, 24 h, DiI-LDL 20 ug/ml, 3 h, FLU of sample group/FLU of blank group x100%, read-out: LDL uptake rate
Protocol: HepG2 cells were inoculated in 24-well plates, cultured in DMEM containing 10% FBS for 24 h or 48 h, and then transferred to DMEM containing 2% defatted serum and cultivated for 24 h. The old culture solution was discarded and replaced with new 2% defatted serum DMEM, and a test compound (the working concentration of which is 5 uM, triplicate for each sample) was added and incubated for 24 h. The old culture solution was abandoned and DMEM containing DiI-LDL (20 ug/ml) was added (300 ul/per 24 wells), incubated for 3 h. DMEM containing DiI-LDL was discarded, and cells were rinsed twice with PBS containing 0.4% BSA, and 3 times with PBS to remove excess DiI-LDL. Isopropanol was added (500 ul/per well of a 24-well plate), and was kept in darkness. After shaken for 20 minutes, 200 ul of supernatant was sucked to a black fluorescent plate, and fluorescence intensity (FLU) was detected at excitation light 520 nm and emission light 578 nm. The experimental results were calculated: LDL uptake rate=(FLU value of sample group to be tested/FLU value of blank group)×100%.

[1] = tested on: Syrian golden hamsters (high-fat diet, hyperlipidemia model); experiment: In vivo lipid-lowering activity in high-fat diet golden hamsters; set-up: species or system Syrian golden hamster; conditions: for CHOL / HDL-C / LDL-C / TG: high-fat diet, serum; for contents of cholesterol (CHOL), triglyceride (TG) and low density lipoprotein (LDL-C) in the blood: hyperlipidemia model
Protocol: After adaptively feeding Syrian golden hamsters (male, 80-100 g) for a week, all hamsters were fed with high-fat diet. Two weeks later, blood was collected from the orbital venous plexus, serum was separated, and levels of total cholesterol (TC), triglyceride (TG), high-density lipoprotein (HDL-C) and low-density lipoprotein (LDL-C) in serum were measured. They were evenly grouped according to blood lipid levels into […]: model control group, A1 intragastric administration group, A1 intraperitoneal administration group, A5 intragastric administration group, A5 intraperitoneal administration group, A55 intragastric administration group, A55 intraperitoneal administration group, B5 intragastric administration group, B5 intraperitoneal administration group, and the animals in each group were continued to be administered with high fat diet. […] […] Blood lipid levels and body weights were measured every 10 days. After three weeks, the animals were sacrificed and the liver was stored in a −80° C. refrigerator.

Rat pharmacokinetics = type: in vivo; set-up: AUC(0-t) / AUC(0-inf): concentration or dose not given beside the values; conditions: plasma
Protocol: (§1) A1 10 μL of a plasma sample was taken in a centrifuge tube and 100 μL of methanol:acetonitrile (1:1, v/v) was added, vortexed for 1 min, centrifugated (14000 rpm) for 5 min, and 50 μL supernatant was taken, mixed with equal volume of water, and analysised after vortex mixing. The linear range of A1 is: 0.1-300 ng/mL for oral administration and 1-3000 ng/mL for intravenous injection.
as §1, with “A55” for “A1”, “0.3-3000” for “1-3000”

[2] = abdominal (intraperitoneal) 30 mg/kg once a day for three weeks
[3] = oral (intragastric) 30 mg/kg once a day for three weeks

Compound: COc1cc2c(cc1OCc1ccccc1F)CCN1Cc3[nH]c4ccccc4c3CC21 (stereo not drawn) [Example C54, 3-((2-fluorobenzyl)oxo)-2-methoxy-5,6,8,9,14,14a-hexahydroindole[3′,2′:4,5]pyridine[2,1-a]isoquinoline]
activity at 5 µM (HepG2 cells): 110%

Compound: COc1cc2c(cc1OCc1ccc(F)cc1)CCN1Cc3c(c4ccccc4n3CO)CC21 (stereo not drawn) [Example A60]
activity at 5 µM (HepG2 cells): 108%

Compound: COc1ccc2c(c1)c1c(n2CO)CN2CCc3cc(OC)c(OCc4ccc(F)cc4)cc3C2C1 (stereo not drawn) [Example A5, (2-((4-fluorobenzyl)oxy)-3,12-dimethoxy-5,6,14,14a-tetrahydroindolo[3′,2′:4,5]pyridine[2,1-a]isoquinoline-9(8H)-yl)methanol]
activity at 5 µM (HepG2 cells): 156%
CHOL [1, 2]: 11.36 mmol/L
HDL-C [1, 2]: 1.77 mmol/L
LDL-C [1, 2]: 6.16 mmol/L
TG [1, 2]: 13.26 mmol/L
CHOL [1, 3]: 15.32 mmol/L
HDL-C [1, 3]: 4.01 mmol/L
LDL-C [1, 3]: 7.44 mmol/L
TG [1, 3]: 15.46 mmol/L
contents of cholesterol (CHOL), triglyceride (TG) and low density lipoprotein (LDL-C) in the blood [1]: significantly reduced

Compound: COc1ccc2c(c1)c1c(n2CO)CN2CCc3cc(OC)c(OC)cc3C2C1 (stereo not drawn) [Example A37, (2,3,12-Trimethoxy-5,6,14,14a-tetrahydroindolo[3′,2′:4,5]pyridine[2,1-a]isoquinoline-9(8H)-yl)methanol]
activity at 5 µM (HepG2 cells): 99.1%

Compound: COc1ccc2[nH]c3c(c2c1)CC1c2cc(OC)c(OCc4cccc(F)c4)cc2CCN1C3c1ccc(F)cc1 (stereo not drawn) [Example B61, 3-((3-fluorobenzyl)oxo)-8-(4-fluorophenyl)-2,12-dimethoxy-5,6,8,9,14,14a-hexahydroindole[3′,2′:4,5]pyridine[2,1-a]isoquinoline]
activity at 5 µM (HepG2 cells): 116%

Compound: COc1cc2c(cc1OCc1ccc(F)cc1)CCN1C2Cc2c([nH]c3ccccc23)C1c1ccc(F)cc1 (stereo not drawn) [Example B60, 3-((4-fluorobenzyl)oxo)-8-(4-fluorophenyl)-2-methoxy-5,6,8,9,14,14a-hexahydroindole[3′,2′: 4,5]pyridine[2,1-a]isoquinoline]
activity at 5 µM (HepG2 cells): 114%

Compound: COc1cc2c(cc1OCc1cccc(C)c1)CCN1Cc3c(c4ccccc4n3CO)CC21 (stereo not drawn) [Example A143, (2-methoxy-3-((3-methylbenzyl)oxo)-5,6,14,14a-tetrahydroindolo[3′,2′:4,5]pyridine[2,1-a]isoquinoline-9(8H)-yl)methanol]
activity at 5 µM (HepG2 cells): 91.1%

Compound: COc1cc2c(cc1OC)C1Cc3c(n(CO)c4ccccc34)CN1CC2 (stereo not drawn) [Example A38, (2,3-dimethoxy-5,6,14,14a-tetrahydroindolo[3′,2′:4,5]pyridine[2,1-a]isoquinoline-9(8H)-yl)methanol]
activity at 5 µM (HepG2 cells): 123%

Compound: COc1ccc2c(c1)c1c(n2CO)CN2CCc3cc(OC)c(OCc4ccccc4)cc3[C@@H]2C1 [(S)-A1]
activity at 5 µM (HepG2 cells): 116%

Compound: COc1cc2c(cc1OCc1ccc(C)cc1)C1Cc3c([nH]c4ccccc34)C(c3ccc(F)cc3)N1CC2 (stereo not drawn) [Example B16, 8-(4-Fluorophenyl)-3-methoxy-2-((4-methylbenzyl)oxo)-5,6,8,9,14,14a-hexahydroindolo[3′,2′:4,5]pyridine[2,1-a]isoquinoline]
activity at 5 µM (HepG2 cells): 107%

Compound: COc1ccc2[nH]c3c(c2c1)CC1c2cc(OC)c(OCc4ccc(F)cc4)cc2CCN1C3c1ccc(F)cc1 (stereo not drawn) [Example B59, 3-((4-fluorobenzyl)oxo)-8-(4-fluorophenyl)-2,12-dimethoxy-5,6,8,9,14,14a-hexahydroindole[3′,2′:4,5]pyridine[2,1-a]isoquinoline]
activity at 5 µM (HepG2 cells): 109%

Compound: COc1cc2c(cc1OCc1ccc(C)cc1)CCN1Cc3c(c4ccccc4n3CO)CC21 (stereo not drawn) [Example A70, (2-methoxy-3-((4-methylbenzyl)oxy)-5,6,14,14a-tetrahydroindolo[3′,2′:4,5]pyridine[2,1-a]isoquinoline-9(8H)-yl)methanol]
activity at 5 µM (HepG2 cells): 80.6%

Compound: COc1ccc2[nH]c3c(c2c1)CC1c2cc(OCc4ccccc4F)c(OC)cc2CCN1C3c1ccc(F)cc1 (stereo not drawn) [Example B9, 2-((2-fluorobenzyl)oxo)-8-(4-fluorophenyl)-3,12-dimethoxy-5,6,8,9,14,14a-hexahydroindole[3′,2′:4,5]pyridine[2,1-a]isoquinoline]
activity at 5 µM (HepG2 cells): 94.3%

Compound: COc1cc2c(cc1OCc1ccc(F)cc1)C1Cc3c([nH]c4ccccc34)C(c3ccc(F)cc3)N1CC2 (stereo not drawn) [Example B6, 2-((4-fluorobenzyl)oxo)-8-(4-fluorophenyl)-3-methoxy-5,6,8,9,14,14a-hexahydroindole[3′,2′: 4,5]pyridine[2,1-a]isoquinoline]
activity at 5 µM (HepG2 cells): 108%

Compound: COc1cccc(COc2cc3c(cc2OC)CCN2C3Cc3c([nH]c4ccc(OC)cc34)C2c2ccc(F)cc2)c1 (stereo not drawn) [Example B13, 8-(4-Fluorophenyl)-3,12-dimethoxy-2-((3-methoxybenzyl)oxo)-5,6,8,9,14,14a-hexahydroindolo[3′,2′:4,5]pyridine[2,1-a]isoquinoline]
activity at 5 µM (HepG2 cells): 105%

AUC(0-t) (Rat pharmacokinetics; iv): 1910 ng·h/mL
Cmax (Rat pharmacokinetics; iv): 1110 ng/mL
Tmax (Rat pharmacokinetics; iv): 0.083 h
half-life (Rat pharmacokinetics; iv): 2.58 h
AUC(0-inf) (Rat pharmacokinetics; iv, read-out: AUCINF—obs): 1980 ng·h/mL
clearance (Rat pharmacokinetics; iv, read-out: CL—obs (converted)): 84.2 mL/min/kg
MRT inf (Rat pharmacokinetics; iv, read-out: MRTINF—obs): 3.3 h
Vd (Rat pharmacokinetics; iv, read-out: Vss—obs): 16.6 L/kg
AUC(0-t) (Rat pharmacokinetics; po): 776 ng·h/mL
Cmax (Rat pharmacokinetics; po): 159 ng/mL
Tmax (Rat pharmacokinetics; po): 6 h
bioavailability (Rat pharmacokinetics; po): 20.3%
Compound: COc1ccc2c(c1)c1c(n2CO)CN2CCc3cc(OC)c(OCc4ccccc4)cc3C2C1 (stereo not drawn) [Example A1, (2-(Benzyloxy)-3,12-dimethoxy-5,6,14,14a-tetrahydroindolo[3′,2′:4,5]pyridine[2,1-a]isoquinoline-9(8H)-yl)methanol]
activity at 5 µM (HepG2 cells): 148%
CHOL [1, 2]: 9.75 mmol/L
HDL-C [1, 2]: 1.63 mmol/L
LDL-C [1, 2]: 5.25 mmol/L
TG [1, 2]: 8.16 mmol/L
CHOL [1, 3]: 27.93 mmol/L
HDL-C [1, 3]: 2.56 mmol/L
LDL-C [1, 3]: 13.64 mmol/L
TG [1, 3]: 28.61 mmol/L
contents of cholesterol (CHOL), triglyceride (TG) and low density lipoprotein (LDL-C) in the blood [1]: significantly reduced

Compound: COc1ccc2c(c1)c1c(n2CO)CN2CCc3cc(OC)c(OCc4ccc(C)cc4)cc3C2C1 (stereo not drawn) [Example A15, (3,12-Dimethoxy-2-((4-methylbenzyl)oxy)-5,6,14,14a-tetrahydroindolo[3′,2′:4,5]pyridine[2,1-a]isoquinoline-9(8H)-yl)methanol]
activity at 5 µM (HepG2 cells): 115%

Compound: COc1ccc2[nH]c3c(c2c1)C[C@@H]1c2cc(OCc4ccc(C(F)(F)F)cc4)c(OC)cc2CCN1C3 [(R)-C3]
activity at 5 µM (HepG2 cells): 218%

Compound: COc1ccc2[nH]c3c(c2c1)CC1c2cc(OCc4ccccc4F)c(OC)cc2CCN1C3 (stereo not drawn) [Example C9, 2-((2-Fluorobenzyl)oxo)-3,12-dimethoxy-5,6,8,9,14,14a-hexahydroindole[3′,2′:4,5]pyridine[2,1-a]isoquinoline]
TC ([1]; Dose 30, oral): 36.87 ± 23.13 mmol/L

Compound: COc1ccc2[nH]c3c(c2c1)C[C@H]1c2cc(OCc4ccc(C(F)(F)F)cc4)c(OC)cc2CCN1C3 [(S)-C3]
activity at 5 µM (HepG2 cells): 111%

Compound: COc1ccc2c(c1)c1c(n2CO)CN2CCc3cc(OCc4ccccc4)c(OC)cc3[C@H]2C1 [(R)-A55]
activity at 5 µM (HepG2 cells): 200%

Compound: COc1cc2c(cc1OCc1cccc(C)c1)CCN1Cc3[nH]c4ccccc4c3CC21 (stereo not drawn) [Example C107, 2-methoxy-3-((3-methylbenzyl)oxo)-5,6,8,9,14,14a-hexahydroindolo[3′,2′:4,5]pyridine[2,1-a]isoquinoline]
activity at 5 µM (HepG2 cells): 69.5%

Compound: COc1ccc2[nH]c3c(c2c1)CC1c2cc(OC)c(OCc4cccc(C)c4)cc2CCN1C3 (stereo not drawn) [Example C106, 2,12-dimethoxy-3-((3-methylbenzyl)oxo)-5,6,8,9,14,14a-hexahydroindolo[3′,2′:4,5]pyridine[2,1-a]isoquinoline]
activity at 5 µM (HepG2 cells): 111%

Compound: COc1ccc2c(c1)c1c(n2CO)CN2CCc3cc(OCc4ccc(C(F)(F)F)cc4)c(OC)cc3C2C1 (stereo not drawn) [Example A57, (2,12-Dimethoxy-3-((4-(trifluoromethyl)benzyl)oxy)-5,6,14,14a-tetrahydroindolo[3′,2′:4,5]pyridine[2,1-a]isoquinoline-9(8H)-yl)methanol]
activity at 5 µM (HepG2 cells): 112%
